Test results as given in patent US8865756B2, “Inhibitors of HCV NS5A” (Presidio Pharmaceuticals, Inc., priority 2008, dated 2014).

Tested on: HCV 1b_Huh-Luc/Neo-ET cell line persistently expressing a bicistronic genotype 1b replicon in Huh 7 cells
Experiment: HCV replicon assay (luciferase readout)
Assay type: cell-based
Conditions: Hepatitis C virus, Huh-7, 72 h, read-out: Inhibition of HCV genotype 1b
How it was run: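 Huh 7 cells carrying a genotype 1b luciferase/neo replicon treated in triplicate for 72 h, then luciferase activity measured. Signal expressed as % of control; EC50 from four-parameter logistic fit, determined several times.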

Q: How did the EC50 turn out when COC(=O)N[C@H](C(=O)N1CCC[C@H]1c1ncc(-c2ccc(C#Cc3ccc(-c4cnc([C@@H]5CCCN5C(=O)[C@@H](c5ccccc5)N5CCOC5=O)[nH]4)cc3)cc2)[nH]1)C(C)C [Compound 1007] was run?
A: < 1 nM

Q: With COC(=O)N[C@@H](C)C(=O)N1CCC[C@H]1c1ncc(-c2ccc(C#Cc3ccc(-c4cnc([C@@H]5CCCN5C(=O)[C@@H](c5ccccc5)N5CCOC5=O)[nH]4)cc3)cc2)[nH]1 [Compound 1008] as the compound, how does the EC50 read?
A: < 1 nM

Q: COC(=O)N[C@@H](C(=O)N1CCC[C@H]1c1ncc(-c2ccc(C#Cc3ccc(-c4cnc([C@@H]5CCCN5C(=O)[C@H](NC(=O)OC)c5ccccc5)[nH]4)cn3)cc2)[nH]1)c1ccccc1 [Compound 1010] was tested. Which EC50 did it give?
A: < 1 nM

Q: COC(=O)NC(C(=O)N1CCC[C@H]1c1ncc(-c2ccc(C#Cc3ccc(-c4cnc([C@@H]5CCCN5C(=O)[C@@H](NC(=O)OC)C(C)C)[nH]4)c(F)c3)cc2)[nH]1)C(C)C (stereo partly drawn) [Compound 1011] was tested. Which EC50 did it give?
A: < 1 nM

Q: With COC(=O)N[C@H](C(=O)N1CCC[C@H]1c1ncc(-c2ccc(C#Cc3ccc(-c4cnc([C@@H]5CCCN5C(=O)[C@@H](NC(=O)OC)C5CCOCC5)[nH]4)c(F)c3)cc2)[nH]1)C1CCOCC1 [Compound 1012] as the compound, how does the EC50 read?
A: < 1 nM

Q: How did the EC50 turn out when COC(=O)N[C@@H](C(=O)N1CCC[C@H]1c1ncc(-c2ccc(C#Cc3ccc(-c4cnc([C@@H]5CCCN5C(=O)[C@H](NC(=O)OC)c5ccccc5)[nH]4)c(F)c3)cc2)[nH]1)c1ccccc1 [Compound 1013] was run?
A: < 1 nM

Q: How did the EC50 turn out when O=C(N[C@@H](C(=O)N1CCC[C@H]1c1ncc(-c2ccc(C#Cc3ccc(-c4cnc([C@@H]5CCCN5C(=O)[C@H](NC(=O)OC5CCOCC5)c5ccccc5)[nH]4)c(F)c3)cc2)[nH]1)c1ccccc1)OC1CCOCC1 [Compound 1014] was run?
A: < 1 nM

Q: For COC(=O)N[C@H](C(=O)N1CCC[C@H]1c1ncc(-c2ccc(C#Cc3ccc4nc([C@@H]5CCCN5C(=O)[C@@H](C(C)C)N(C)C)[nH]c4c3)cc2)[nH]1)C(C)C [Compound 1020], which EC50 is on record?
A: < 1 nM

Q: With COC(=O)N[C@H](C(=O)N1CCC[C@H]1c1ncc(-c2ccc(C#Cc3ccc4nc([C@@H]5CCCN5C(=O)[C@H](C(C)C)N(C)C)[nH]c4c3)cc2)[nH]1)C(C)C [Compound 1021] as the compound, how does the EC50 read?
A: < 1 nM

Q: How did the EC50 turn out when COC(=O)N[C@H](C(=O)N1CCC[C@H]1c1nc2ccc(C#Cc3ccc(-c4cnc([C@@H]5CCCN5C(=O)[C@H](NC(=O)OC)c5ccccc5)[nH]4)cc3)cc2[nH]1)C(C)C [Compound 1022] was run?
A: < 1 nM

Q: How did the EC50 turn out when COC(=O)N[C@H](C(=O)N1CCC[C@H]1c1ncc(-c2ccc(C#Cc3ccc4nc([C@@H]5CCCN5C(=O)[C@H](NC(=O)OC)c5ccccc5)[nH]c4c3)cc2)[nH]1)C(C)C [Compound 1023] was run?
A: < 1 nM

Q: Which EC50 does the source give for CC[C@@H](C)[C@H](NC(=O)OC)C(=O)N1CCC[C@H]1c1ncc(-c2ccc(C#Cc3ccc4nc([C@@H]5CCCN5C(=O)[C@@H](NC(=O)OC)[C@H](C)CC)[nH]c4c3)cc2)[nH]1 [Compound 1024] here?
A: < 1 nM

Q: With COC(=O)N[C@H](C(=O)N1CCC[C@H]1c1ncc(-c2ccc(C#Cc3ccc4nc([C@@H]5CCCN5C(=O)[C@@H](NC(=O)OC)C5CCCC5)[nH]c4c3)cc2)[nH]1)C1CCCC1 [Compound 1025] as the compound, how does the EC50 read?
A: < 1 nM

Q: How did the EC50 turn out when COC(=O)N[C@H](C(=O)N1CSC[C@H]1c1ncc(-c2ccc(C#Cc3ccc4nc([C@@H]5CCCN5C(=O)[C@@H](NC(=O)OC)C(C)C)[nH]c4c3)cc2)[nH]1)C(C)C [Compound 1026] was run?
A: < 1 nM

Q: COC(=O)N[C@H](C(=O)N1CCOC[C@H]1c1ncc(-c2ccc(C#Cc3ccc4nc([C@@H]5CCCN5C(=O)[C@@H](NC(=O)OC)C(C)C)[nH]c4c3)cc2)[nH]1)C(C)C [Compound 1027] was tested. Which EC50 did it give?
A: < 1 nM

Q: With COC(=O)N[C@@H](C)C(=O)N1CCC[C@H]1c1ncc(-c2ccc(C#Cc3ccc4nc([C@@H]5CCCN5C(=O)[C@H](C)NC(=O)OC)[nH]c4c3)cc2)[nH]1 [Compound 1028] as the compound, how does the EC50 read?
A: < 1 nM

Q: For COC(=O)N[C@H](C(=O)N1CCC[C@H]1c1ncc(-c2ccc(C#Cc3ccc4nc([C@@H]5CCCN5C(=O)[C@@H](NC(=O)OC)C5CC5)[nH]c4c3)cc2)[nH]1)C1CC1 [Compound 1029], which EC50 is on record?
A: < 1 nM

Q: For CCC(CC)[C@H](NC(=O)OC)C(=O)N1CCC[C@H]1c1ncc(-c2ccc(C#Cc3ccc4nc([C@@H]5CCCN5C(=O)[C@@H](NC(=O)OC)C(CC)CC)[nH]c4c3)cc2)[nH]1 [Compound 1030], which EC50 is on record?
A: < 1 nM

Q: COC(=O)N[C@H](C(=O)N1CCC[C@H]1c1ncc(-c2ccc(C#Cc3ccc4nc([C@@H]5CCCN5C(=O)[C@@H](NC(=O)OC)[C@H](C)O)[nH]c4c3)cc2)[nH]1)[C@H](C)O [Compound 1031] was tested. Which EC50 did it give?
A: < 1 nM

Q: COC(=O)N[C@H](C(=O)N1CCCC[C@H]1c1ncc(-c2ccc(C#Cc3ccc4nc([C@@H]5CCCN5C(=O)[C@@H](NC(=O)OC)C(C)C)[nH]c4c3)cc2)[nH]1)C(C)C [Compound 1032] was tested. Which EC50 did it give?
A: < 1 nM

Q: Which EC50 does the source give for COC(=O)N[C@H](C(=O)N1CCC[C@H]1c1ncc(-c2ccc(C#Cc3ccc4nc([C@@H]5CCCN5C(=O)[C@@H](NC(=O)OC)C(C)C)[nH]c4c3)nc2)[nH]1)C(C)C [Compound 1033] here?
A: < 1 nM

Q: How did the EC50 turn out when CC(C)(C)OC(=O)N1CCCC1c1ncc(-c2ccc(C#Cc3ccc4nc([C@@H]5CCCN5C(=O)OC(C)(C)C)[nH]c4c3)cc2)[nH]1 (stereo partly drawn) [Compound 1034] was run?
A: 1 to 9.9 nM

Q: Which EC50 does the source give for C(#Cc1ccc2nc([C@@H]3CCCN3)[nH]c2c1)c1ccc(-c2cnc([C@@H]3CCCN3)[nH]2)cc1 [Compound 1035] here?
A: 10 to 999 nM

Q: With CC[C@H](NC(=O)OC)C(=O)N1CCC[C@H]1c1ncc(-c2ccc(C#Cc3ccc4nc([C@@H]5CCCN5C(=O)[C@H](CC)NC(=O)OC)[nH]c4c3)cc2)[nH]1 [Compound 1036] as the compound, how does the EC50 read?
A: < 1 nM

Q: How did the EC50 turn out when COC[C@H](NC(=O)OC)C(=O)N1CCC[C@H]1c1ncc(-c2ccc(C#Cc3ccc4nc([C@@H]5CCCN5C(=O)[C@H](COC)NC(=O)OC)[nH]c4c3)cc2)[nH]1 [Compound 1037] was run?
A: < 1 nM

Q: How did the EC50 turn out when O=S(=O)(c1ccccc1)N1CCC[C@H]1c1ncc(-c2ccc(C#Cc3ccc4nc([C@@H]5CCCN5S(=O)(=O)c5ccccc5)[nH]c4c3)cc2)[nH]1 [Compound 1038] was run?
A: > 1000 nM

Q: With CC(C)[C@@H](C(=O)N1CCC[C@H]1c1ncc(-c2ccc(C#Cc3ccc4nc([C@@H]5CCCN5C(=O)[C@H](C(C)C)N5CCOC5=O)[nH]c4c3)cc2)[nH]1)N1CCOC1=O [Compound 1039] as the compound, how does the EC50 read?
A: 1 to 9.9 nM

Q: Which EC50 does the source give for COC(=O)N[C@H](C(=O)N1C[C@H](F)C[C@H]1c1ncc(-c2ccc(C#Cc3ccc4nc([C@@H]5CCCN5C(=O)[C@@H](NC(=O)OC)C(C)C)[nH]c4c3)cc2)[nH]1)C(C)C [Compound 1040] here?
A: < 1 nM

Q: For COC(=O)N[C@H](C(=O)N1CCC[C@H]1c1ncc(-c2ccc(C#Cc3ccc4nc([C@@H]5CCCN5C(=O)[C@@H](NC(=O)OC)C(C)(C)C)[nH]c4c3)cc2)[nH]1)C(C)(C)C [Compound 1041], which EC50 is on record?
A: < 1 nM

Q: With O=S(=O)(Cc1ccccc1)N1CCC[C@H]1c1ncc(-c2ccc(C#Cc3ccc4nc([C@@H]5CCCN5S(=O)(=O)Cc5ccccc5)[nH]c4c3)cc2)[nH]1 [Compound 1042] as the compound, how does the EC50 read?
A: > 1000 nM

Q: For COC(=O)NC1(C(=O)N2CCC[C@H]2c2ncc(-c3ccc(C#Cc4ccc5nc([C@@H]6CCCN6C(=O)C6(NC(=O)OC)CC6)[nH]c5c4)cc3)[nH]2)CC1 [Compound 1043], which EC50 is on record?
A: 10 to 999 nM

Q: For COC(=O)NC1(C(=O)N2CCC[C@H]2c2ncc(-c3ccc(C#Cc4ccc5nc([C@@H]6CCCN6C(=O)C6(NC(=O)OC)CCCC6)[nH]c5c4)cc3)[nH]2)CCCC1 [Compound 1044], which EC50 is on record?
A: 10 to 999 nM

Q: With COC(=O)N[C@@H](Cc1ccccc1)C(=O)N1CCC[C@H]1c1ncc(-c2ccc(C#Cc3ccc4nc([C@@H]5CCCN5C(=O)[C@H](Cc5ccccc5)NC(=O)OC)[nH]c4c3)cc2)[nH]1 [Compound 1045] as the compound, how does the EC50 read?
A: < 1 nM

Q: For COC(=O)N[C@@H](CC(N)=O)C(=O)N1CCC[C@H]1c1ncc(-c2ccc(C#Cc3ccc4nc([C@@H]5CCCN5C(=O)[C@H](CC(N)=O)NC(=O)OC)[nH]c4c3)cc2)[nH]1 [Compound 1046], which EC50 is on record?
A: 1 to 9.9 nM

Q: For COC(=O)N[C@@H](CCC(=O)O)C(=O)N1CCC[C@H]1c1ncc(-c2ccc(C#Cc3ccc4nc([C@@H]5CCCN5C(=O)[C@H](CCC(=O)O)NC(=O)OC)[nH]c4c3)cc2)[nH]1 [Compound 1047], which EC50 is on record?
A: 10 to 999 nM

Q: For COC(=O)N[C@@H](Cc1cnc[nH]1)C(=O)N1CCC[C@H]1c1ncc(-c2ccc(C#Cc3ccc4nc([C@@H]5CCCN5C(=O)[C@H](Cc5cnc[nH]5)NC(=O)OC)[nH]c4c3)cc2)[nH]1 [Compound 1048], which EC50 is on record?
A: 1 to 9.9 nM

Q: COC(=O)NCC(=O)N1CCC[C@H]1c1ncc(-c2ccc(C#Cc3ccc4nc([C@@H]5CCCN5C(=O)CNC(=O)OC)[nH]c4c3)cc2)[nH]1 [Compound 1049] was tested. Which EC50 did it give?
A: 10 to 999 nM

Q: COC(=O)NC(C)(C)C(=O)N1CCC[C@H]1c1ncc(-c2ccc(C#Cc3ccc4nc([C@@H]5CCCN5C(=O)C(C)(C)NC(=O)OC)[nH]c4c3)cc2)[nH]1 [Compound 1050] was tested. Which EC50 did it give?
A: 10 to 999 nM

Q: With COC(=O)N[C@@H](CCC(N)=O)C(=O)N1CCC[C@H]1c1ncc(-c2ccc(C#Cc3ccc4nc([C@@H]5CCCN5C(=O)[C@H](CCC(N)=O)NC(=O)OC)[nH]c4c3)cc2)[nH]1 [Compound 1051] as the compound, how does the EC50 read?
A: 1 to 9.9 nM

Q: For C(#Cc1ccc2nc([C@@H]3CCCN3Cc3ccccc3)[nH]c2c1)c1ccc(-c2cnc([C@@H]3CCCN3Cc3ccccc3)[nH]2)cc1 [Compound 1052], which EC50 is on record?
A: > 1000 nM

Q: Which EC50 does the source give for COC(=O)N[C@H](C(=O)N1CCC[C@H]1c1nc2ccc(C#Cc3ccc(-c4cnc([C@@H]5CCCN5C(=O)[C@H](NC(=O)OC)C(C)C)[nH]4)cc3)cc2[nH]1)C(C)C [Compound 1053] here?
A: < 1 nM

Q: COC(=O)N[C@H](C(=O)N1CCC[C@H]1c1ncc(-c2ccc(C#Cc3ccc4nc([C@@H]5CCCN5C(=O)[C@H](NC(=O)OC)C(C)C)[nH]c4c3)cc2)[nH]1)C(C)C [Compound 1054] was tested. Which EC50 did it give?
A: < 1 nM

Q: COC(=O)N[C@H](C(=O)N1CCC[C@H]1c1nc2ccc(C#Cc3ccc(-c4cnc([C@@H]5CCCN5)[nH]4)cc3)cc2[nH]1)C(C)C [Compound 1055] was tested. Which EC50 did it give?
A: 10 to 999 nM

Q: COC(=O)N[C@H](C(=O)N1CCC[C@H]1c1ncc(-c2ccc(C#Cc3ccc4nc([C@@H]5CCCN5)[nH]c4c3)cc2)[nH]1)C(C)C [Compound 1056] was tested. Which EC50 did it give?
A: 10 to 999 nM

Q: With COC(=O)N[C@@H](Cc1c[nH]c2ccccc12)C(=O)N1CCC[C@H]1c1ncc(-c2ccc(C#Cc3ccc4nc([C@@H]5CCCN5C(=O)[C@H](Cc5c[nH]c6ccccc56)NC(=O)OC)[nH]c4c3)cc2)[nH]1 [Compound 1057] as the compound, how does the EC50 read?
A: < 1 nM
